Measurements published in patent US20240415819A1, “MACROCYCLIC COMPOUNDS AS PROTEASOME SUBUNIT BETA TYPE-5 INHIBITORS” (Lead Discovery Center GmbH, priority 2021, published 2024).

Experiments:
[1] = test system: Hs 746T (human gastric carcinoma cell line); experiment: 48 hr CTG viability assay, Hs 746T; format: cell-based; conditions: Hs746T, 48 hr CTG, read-out: Hs 746T IC50
How it was run: (§1)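 Growth inhibition by compound over 48 h; IC50 (nM) derived from duplicate CellTiter-Glo luminescence readings across 0.0015–10 uM.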

[2] = test system: MDA-MB-468 (breast carcinoma); experiment: 48 hr CTG viability assay, MDA-MB-468; format: cell-based; conditions: Homo sapiens
Protocol: A viability assay was conducted for 48 hours to evaluate the inhibition of cancer cell growth by proteasome inhibitors. Briefly, the candidate cell line was plated with a 96-well plate following density of cells, respectively. 6×10^3 Cells/well for A2780 (human ovarian cancer cell line) and MDA-MB-468 (breast carcinoma), 8×10^3 Cells/well for Hs746T (human gastric carcinoma cell line), 1.1×10^4 Cells/well for MM1 S and RPMI 8226 (multiple myeloma). After 24 hours, the cells were treated with various concentrations of the compound (ranging from 0.0015 uM to 10 uM). […] After 48 hours of incubation at 37° C., 5% CO2 incubator, cells were analyzed for viability using the CellTiter-Glo Luminescent Cell Viability assay (Promega, Cat #G7570). All viability assays were performed in duplicate and Luminescence was read using an Envision (Perkin Elmer, USA). Data were analyzed using XLfit software. […] (human gastric carcinoma cell line), MM1 S (B lymphoblast cell line), and RPMI 8226 (B lymphocyte cell line, multiple myeloma). Inhibition is indicated as IC50 [nM] (“-”=not measured).

[3] = target: T1, β5 subunit of the human immunoproteasome (IPS) (Homo sapiens, UniProt P28062); experiment: β5 inhibition assay, human immunoproteasome (Suc-LLVY-AMC); format: biochemical; conditions: IC50 class, Suc-LLVY-AMC substrate
T1 construct: purchased Boston Biochem E-370
How it was run: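 β5 activity is read as liberated AMC fluorescence (355/460 nm) after 4 h dark reaction at RT with 22.6 μM Suc-LLVY-AMC, stopped by 1 μM bortezomib. Beforehand, 1 nM human IPS and compound sat 10 min at RT in HEPES pH 7.5 buffer containing NaCl, 0.02% SDS and DTT.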

[4] = test system: A549 (human lung carcinoma cell line); experiment: Glo assay of A549 cells (Table 3; ProteasomeGlo plating scheme); format: cell-based; conditions: Homo sapiens; A549 cells; read-out: PGLo A549
How it was run: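 After acoustic compound transfer, plates incubate 105 min (37° C., 5% CO2). Proteasome-Glo reagent containing Suc-LLVY-Glo substrate is added, plates are shaken, then luminescence is measured after 10-15 min to derive IC50 [nM]. Staurosporine and DMSO serve as controls.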

[5] = test system: MM1 S (B lymphoblast cell line); experiment: 48 hr CTG viability assay, MM1S; format: cell-based; conditions: Homo sapiens, 48 hr CTG, read-out: MM1S IC50
How it was run: as §1

[6] = test system: RPMI 8226 (B lymphocyte cell line, multiple myeloma); experiment: 48 hr CTG viability assay, RPMI 8226; format: cell-based; conditions: Homo sapiens, RPMI-8226; 48 hr CTG; read-out: RPMI-8226 IC50
How it was run: as §1

[7] = target: T2, β5 subunit of the human constitutive proteasome (CPS) (Homo sapiens, UniProt P28074); experiment: β5 inhibition assay, human constitutive proteasome (Suc-LLVY-AMC); format: biochemical; conditions: IC50 class, Suc-LLVY-AMC substrate
T2 construct: purchased Boston Biochem E-360
Protocol: The enzymatic activity of the β5 subunit of the human constitutive proteasome (CPS) is analyzed. In another assay, which differs from the assay of the human constitutive proteasome only in using the human immunoproteasome (IPS) the enzymatic activity of the β5 subunit of the human immunoproteasome (IPS) is analyzed. […] Inhibition is indicated as IC50 [nM] (“-”=not measured).

HT-29 cells = experiment: CellTiter-Glo luminescent cell viability assay with HT-29 cells (72h incubation); format: cell-based, human; conditions: Homo sapiens, HT-29, HT29 cells, read-out: CTG HT29
How it was run: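 Viability read as CellTiter-Glo luminescence after 72 h compound exposure, with 10 μM staurosporine and DMSO as control wells. Seeding 400 cells per well, compound added 24 h post-plating; IC50 from curve fitting.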

Karpas cells = experiment: Glo assay of Karpas cells (Table 3; ProteasomeGlo plating scheme); format: cell-based; conditions: read-out: Pglo Karpas
Description: Inhibition is indicated as IC50 [nM] (“-”=not measured). […] • Chymotrypsin-Like Cell-Based Proteasome-GloTM Assay (Promega; […]) • Cell culture 384-well plates (Greiner BioOne; 781080) • Dispensing cassette, MultiDrop Standard tube dispensing cassette (Thermo Scientific; 24072670) • DPBS (Pan BioTech; P04-36500) • Cell culture 384-well plates (Greiner BioOne; 781080) • CPD source plate: diamond-shape plate (Labcyte; LP-0200) • Intermediate plate (Labcyte; P-05525) [table] • a. Remove the plates with cells from the incubator. • b. Take all the plates including the compound plate, intermediate plate and Staurosporine plate to the ECHO. • c. Click on “Open” in the ECHO software and select the protocol “QLI5_25ul_30 uM-Grenier”. • d. Follow the on-screen prompts and instructions once you click “Start” to insert the compound plate, intermediate plate and destination plates. • e. Change the final number of destination plates on the program. • f. Follow the on-screen prompts and instructions once you click “Start” to load the Staurosporine and destination plates. • g. Once all the compounds, DMSO and Staurosporine have been transferred, place the destination plates in a wet tissue box. • h. Place the destination plates back into the incubator and incubate at 37° C., 5% CO2 for 105 minutes. • i. Re-seal all the compound+Stauro diamond and intermediate plates and store in the dark. Chymotrypsin like ProteasomeGlo Assay • 1. Thaw the components of the ProteasomeGlo assay at room temperature including the ProteasomeGlo Buffer, the lyophilized Luciferin Detection Reagent and the Suc-LLVY-Glo Substrate. • 2. Reconstitute the Luciferin Detection Reagent in the amber coloured bottle by adding 50 ml of the ProteasomeGlo Buffer. • 3. Vortex the Suc-LLVY-Glo Substrate briefly to reconstitute the Substrate well. • 4. Spin down the Substrate and add 250 μl of the Substrate to the reconstituted Luciferin Detection Reagent from step 2. • 5. Briefly vortex the amber bottle with the mix to prepare a homogenous solution. • 6. Place the mix prepared in step 5 to sit at room temperature for 60 minutes. • 7. After 60 minutes, pipette 25 μl of the mix from step 5 into all wells with the cells. • 8. Shake the plates for 2-5 minutes to ensure the complete mixing of the ProteasomeGlo reagent with the cells. • 9. Leave the plates in the dark for 10-15 minutes. • 10. Measure the luminescence read-out using the Viktor and the protocol “Luminescence_384Well_0.2 sec”. (Note: The Protoeasome-GloTM Reagent (combined Proteasome-GloTM Substrate, Proteasome-GloTM Buffer and Luciferin Detection Reagent) can be stored at 4° C. or -20° C. for 1 month with minimal loss of activity.)

[8] = test system: B-cells isolated from PBMC's; experiment: Chymotrypsin-like ProteasomeGlo assay in B-cells isolated from PBMCs; format: cell-based, human; conditions: Homo sapiens; B-cells isolated from PBMC's; read-out: Pglo B-Cell
Description: PBMC's will be isolated from human blood followed by B-cell isolation from the PBMC's using the Miltenyi Isolation Kit. • 2. This experiment will use the Chymotrypsin-like ProteasomeGlo read-out to generate IC50's following compound treatment. • 3. Dilute all compounds 1:100 for the assay. • 4. […] Repeat the DMSO transfer with lane 12. • 5. Lane 12 should not be seeded with any cells. Only medium! • 6. For all steps, make sure the samples and reagents remain cool! • 7. While dealing with the buffy coats, be careful to not let any exposed skin to be in direct contact with the blood. […] PBMC isolation followed by B-cell isolation using the Miltenyi Kit • Day 2: B-cell plating, ECHO transfer and ProteasomeGlo assay For the initial steps and to make processing the buffy coats easier, separately process the buffy coats. • a. Cut the tube attached to the buffy coats carefully using a clean, sterile and fresh scalpel. • b. Transfer the blood into 2 individual 50 ml falcons. • c. Add an equal volume of DPBS to the blood in the falcons. • d. Add 20 ml of lymphocyte separating medium to two 50 ml falcons. • e. Carefully pour 15-20 ml of the blood+DPBS mix from step c. onto the lymphocyte separating medium from step d. • f. Centrifuge the falcons with the lymphocyte separating medium+blood mix at 800×g for 15 minutes using a swing-out rotor. • g. Following centrifugation, carefully remove the falcons from the centrifuge. • h. The following layers will be observed: • i. Aspirate the plasma layer off carefully without disturbing the different layers. • j. Remove the cell pellet using a pipette into two fresh 50 ml falcons. • k. Fill the falcons with the cells up to 50 ml with DPBS. • l. Centrifuge the falcons at 250×g for 10 minutes using a swing-out rotor (Brake-off). • m. Aspirate the complete DPBS off the cells without disturbing the cell pellet at the bottom of the falcon. • n. Re-suspend the cell pellet in 10 ml of 1×RBC lysis buffer. • o. Incubate the falcons at room temperature in the dark for 10 minutes. • p. After RBC lysis, centrifuge the tubes at 250×g for 10 minutes using a swing-out rotor (brake-off). • (*Note: If the cell pellet is still red or light red, repeat steps n. to p.!) • q. Re-suspend the cell pellet in DPBS up to 50 ml in the falcon. • r. Centrifuge the falcons at 250×g for 10 minutes using a swing-out rotor (Brake-off). • s. Aspirate the DPBS off the cells without disturbing the cell pellet at the bottom of the falcon. • t. Repeat the wash step as described in steps q. to s. 2× times more (total number of washes is 3×). • u. Aspirate the DPBS completely off the cell pellet after the last wash without disturbing the cell pellet. • v. Re-suspend the cell pellet in 20 ml of PBMC cell medium. • w. […] Re-suspend the pellet in volume of the B-cell isolation buffer calculated as follows: • k. Mix well using a 1 ml pipette and incubate the mix on ice for 20 mins. • l. In the meantime, equilibrate one LS Column as follows: • 1. Insert one LS Column into one slot of the separator as depicted in the pictures above. • 2. Place a 50 ml falcon at the bottom of the LS column to collect the wash flow-through. • 3. Add 3 ml of the B-cell isolation buffer into the column. • 4. Allow the buffer to flow-through making sure that the entire volume passes the column and that the column reservoir is empty before the addition of the cells. • 5. Remove the falcon with the flow-through and discard. • m. Place a fresh 50 ml falcon under the LS Column to collect the untouched B-cells isolated from the PBMCs. • n. Apply the entire volume of the cell+antibody+microbeads mix to the LS Column. • o. Collect the flow-through from each application of the mix into the same 50 ml falcon under the LS Column. • p. Once the complete volume of the cell+antibody+microbead mix has been passed through, proceed to washing of the column. • q. Add 3 ml of the B-cell isolation buffer to the LS Column and allow the buffer to flow-through. […]

Structure (SMILES)	IC50 [1] [nM]	IC50 [2] [nM]	IC50 [3] [nM]	IC50 [4] [nM]	IC50 [5] [nM]	IC50 [6] [nM]	IC50 [7] [nM]	IC50 (HT-29 cells) [nM]	IC50 (Karpas cells) [nM]	IC50 [8] [nM]
Cc1ccc2cc1CNC(=O)[C@H](CCc1cccnc1)NC(=O)[C@@H](NC(=O)C(C)(C)CO)CC(=O)N1CCCC(CCO2)C1 (stereo partly drawn) [Compound 683, 3-hydroxy-2,2-dimethyl-N-((9S,12S)-5^4-methyl-8,11,14-trioxo-9-(2-(pyridin-3-yl)ethyl)-4-oxa-7,10-diaza-1(3,1)-piperidina-5(1,3)-benzenacyclotetradecaphane-12-yl)propanamide]	< 100	< 100	< 100	< 100	< 100	< 100	< 100	–	–	–
Cc1ccc2cc1CNC(=O)[C@H](CCc1ccccc1)NC(=O)[C@@H](NC(=O)C1(CO)CC1)CC(=O)N1CCCC(CCO2)C1 (stereo partly drawn) [Compound 664, 1-(hydroxymethyl)-N-((9S,12S)-5^4-methyl-8,11,14-trioxo-9-phenethyl-4-oxa-7,10-diaza-1(3,1)-piperidina-5(1,3)-benzenacyclotetradecaphane-12-yl)cyclopropane-1-carboxamide]	< 100	< 100	< 100	< 100	< 100	< 100	< 100	–	–	–
Cc1ccc2cc1CNC(=O)[C@H](CCc1ccccc1)NC(=O)[C@@H](NC(=O)C1(CO)CCNCC1)CC(=O)N1CCCC(CCO2)C1 (stereo partly drawn) [Compound 730, 4-(hydroxymethyl)-N-((9S,12S)-5^4-methyl-8,11,14-trioxo-9-phenethyl-4-oxa-7,10-diaza-1(3,1)-piperidina-5(1,3)-benzenacyclotetradecaphane-12-yl)piperidine-4-carboxamide]	500 to 1000	1000 to 5000	< 100	100 to 500	100 to 500	500 to 1000	< 100	–	–	–
Cc1ccc2cc1CNC(=O)[C@H](CCc1ccccc1)NC(=O)CCCC(=O)N1CCCC(CCO2)C1 (stereo partly drawn) [Compound 19, (9S)-5^4-methyl-9-phenethyl-4-oxa-7,10-diaza-1(3,1)-piperidina-5(1,3)-benzenacyclopentadecaphane-8,11,15-trione]	–	–	< 100	1000 to 5000	–	–	< 100	1000 to 5000	500 to 1000	–
Cc1cc(C)c2cc1CNC(=O)[C@H](CCc1ccccc1)NC(=O)CCC(=O)N1CCCC(CCO2)C1 (stereo partly drawn) [Compound 59, (9R)-5^4,5^6-dimethyl-9-phenethyl-4-oxa-7,10-diaza-1(3,1)-piperidina-5(1,3)-benzenacyclotetradecaphane-8,11,14-trione]	–	–	–	–	–	–	–	1000 to 5000	–	100 to 500
Cc1ccc2cc1CNC(=O)[C@H](CCc1ccccc1)NC(=O)[C@@H](NC(=O)Cc1ccc(NC(=O)[C@@H](N)CCC(=O)O)cc1C)CC(=O)N1CCCC(CCO2)C1 (some centres unmarked) [Compound 574]	< 100	< 100	–	–	< 100	< 100	–	–	–	–
